Patent US11033518B2, “Pharmaceutical composition containing niclosamide for treating axin-GSK3 interaction-related diseases” (BAOBAB PHARM CO., LTD., priority 2017, dated 2021)

Columns and labels:
[1] = test system: colorectal cancer cell lines HCT116, SW480 and DLD-1; experiment: Trypan blue cell viability / apoptosis of colorectal cancer cells; assay type: cell-based; settings: 48 hours, trypan blue assay
Procedure: 1×10^5 cells of colorectal cancer cell lines HCT116, SW480 and DLD-1 cell (ATCC, American Type Culture Collection) were cultured overnight in a 6-well plate, and then were washed with PBS, and were cultured in a culture medium treated with niclosamide by each concentration (0 μM, 0.125 μM, 0.25 μM, 0.5 μM, 1 μM, 2 μM, 5 μM and 10 μM) for 48 hours. Apoptosis was measured with trypan blue assay and cell viability was calculated by an equation [1−(number of dead cells/total number of cells)].

beta-catenin (β-catenin) = experiment: beta-catenin western blot in colorectal cancer cells; assay type: cell-based; settings: 0, 0.125, 0.25, 0.5 nM, 24 hours; as concentration increased
Procedure: At first, after treating niclosamide of nM units at concentrations of 0 nM, 0.125 nM, 0.25 nM and 0.5 nM to colorectal cancer cells for 24 hours, the beta-catenin (β-catenin) activity and TCF/LEF reporter (Topflash) activity of colorectal cancer cells were measured.
For beta-catenin, western blot was performed using β-catenin (#610154, BD Transduction, 1:5,000) antibody, and as a result, as shown in B (left) of FIG. 1, expression of beta-catenin in colorectal cancer cells was reduced as the concentration of treated niclosamide was increased.

[2] = test system: GSK3, β-catenin and Snail; experiment: Immunoblotting of nucleo-cytoplasm fractions of colorectal cancer cells; assay type: cell-based; settings: 0.25 nM, 24 hours, HCT116, SW480 and DLD-1
Procedure: After treating niclosamide of 0.25 nM to colorectal cancer cell lines HCT116, SW480 and DLD-1 cells for 24 hours, the amount of GSK3, β-catenin and Snail of nucleo-cytoplasm fractions was analyzed by immunoblotting.
The amount of Snail and GSK3 protein in cells was confirmed by separating nuclei and cytoplasm in the hypotonic solution (Kim N H, et al., Sci Signal. 4:ra71, 2011; Yook J I, et al. Nat Cell Biol., 8:[…], 2006). Briefly, after collecting colorectal cancer cells (1×10^6 cells) in a centrifugation tube, they were washed with PBS and were treated with the hypotonic solution (10 mM HEPES, pH7.9; 10 mM KCl; 1 mM DTT with protease inhibitors) 400 μl on ice for 5 minutes. The cell membrane was degraded by addition of 10% NP-40, and the final concentration was adjusted to 0.6% final concentration, and then was mixed well and high-speed centrifugation was conducted for 30 seconds. The cytoplasmic resolvents were separated and nuclear precipitates were washed with cold PBS twice. The nucleoprotein was extracted by treating hypertonic buffer (20 mM HEPES, pH7.9; 0.4 M NaCl; 1 mM DTT with protease inhibitors) on ice for 15 minutes, and then high-speed centrifugation was conducted, and the amount of GSK3, β-catenin and Snail of nucleo-cytoplasm fractions was analyzed by immunoblotting.

Axin2-GSK3 complex = biological target: T1, Axin2-GSK3 complex (Homo sapiens, UniProt P49841); experiment: Immunoprecipitation of His-tagged Axin2 from MCF-7 cell lysates; assay type: binding; settings: total cell lysates of MCF-7 expressing His-tagged Axin2
T1 construct: Triton X-100 lysates of total cells; endogenous in cells; host or cells: MCF-7 cells; GSK3 is endogenous; His-tagged Axin2 comes from a transfected doxycycline-inducible vector
Procedure: In order to confirm whether niclosamide could inhibit Axin-GSK3 interaction, to perform an immunoprecipitation experiment under the condition with or without niclosamide, cell lysates having full-length Axin2 were investigated.
The immunoprecipitation assay was performed as follows (Yook J I, et al. Nat Cell Biol. 8:1398-1406, 2006).
The doxycycline-induced His-tagged Axin2 expression vector was transformed to MCF-7 cell (ATCC, American Type Culture Collection) and was cultured, and was reacted by treating […] (Invitrogen) and niclosamide of each concentration to Triton X-100 lysates of total cells. The protein recovered in beads was subjected to SDS-PAGE, followed by immunoblot analysis, and a control group of 1/20 volume was added.

[3] = biological target: T2, recombinant GSK3 beta - Axin peptide interaction (Homo sapiens, UniProt P49841); experiment: Competitive binding of FITC-linked 19-mer Axin peptide to recombinant GSK3 (fluorometry); settings: 2 hours, Ni-Ti beads
T2 construct: made in house; host or cells: Sf9 insect cells (GSK3 beta); The peptide was synthesized by Peptron
Source text: Since it was disclosed that the hydrophobic residues of alpha helix of Axin were accumulated to the hydrophobic groove formed by the C-terminal loop of GSK3, in the result of structural analysis of Axin-GSK3 binding announced in the past (Dajani R et al., EMBO J. 22:494-501, 2003), the present inventors hypothesized that niclosamide binds to the hydrophobic groove of GSK3 and interferes with the function of Axin, and in order to confirm it, they designed in vitro analysis to confirm competitive inhibition by niclosamide of recombinant GSK3 which binds to a 19-mer FITC-linked Axin peptide.
His-tagged recombinant GSK3 beta was obtained from sf9 insect cells by the known method (Lee D G, et al. Nat Commun. 5:4423, 2014). The FITC-linked 19-mer Axin peptide known to bind to GSK3 as amphipathic alpha-helix (Axin1, 383-401, VEPQKFAEELIHRLEAVQR) was chemically synthesized (Peptron). In order to confirm competitive binding of the synthesized Axin peptide and niclosamide, His-tagged recombinant GSK3 and […] were treated with niclosamide for 2 hours, and were washed with PBS 3 times and then quantitative fluorometry was performed using […]. The fluorescence strength was shown in proportion to the fluorescence strength obtained in the negative control group from 3 times of experiments.

[4] = test system: HCT116, SW480 and DLD-1 cells; experiment: Cell mobility of colorectal cancer cells through basement membrane; assay type: cell-based; settings: nM level, 48 hours
Procedure: At first, the effect on the cell mobility of colorectal cancer cells of niclosamide was confirmed. Colorectal cancer cell lines HCT116, SW480 and DLD-1 cells were cultured under the condition with or without niclosamide for 48 hours, and then the upper part of the membrane was rubbed with a cotton swab and the number of movements of cells inserted into the basement membrane was stained with 0.25% crystal violet and counted. Cells were counted in five random fields.

Snail expression by CagA = experiment: Snail expression induced by CagA in the 293 cell; assay type: cell-based
Source text: In view of the results of Examples 2˜5 that niclosamide inhibited Wnt activity and EMT through Axin-GSK3 inhibition, and that CagA of Helicobacter (Helicobacter pylori) bound to GSK-3 similarly to Axin, the effect of GSK-3 binding and Snail induction by CagA of Helicobacter pylori by niclosamide was confirmed. It was confirmed that binding of CagA and GSK3 was inhibited by niclosamide similarly to Axin 2, when examining with immunoprecipitation after adding various amounts of niclosamide to this sample (FIG. 10A). In addition, it could be seen that Snail expression by CagA was inhibited when treating niclosamide after inducing CagA and Snail expression in the 293 cell (FIG. 10B). Through such a result, it could be seen that niclosamide inhibited the function of CagA performing function similar to Axin and thereby inhibited gastric cancer occurrence and inflammation by Helicobacter.

T1 sequence (P49841 whole entry, one chain of several): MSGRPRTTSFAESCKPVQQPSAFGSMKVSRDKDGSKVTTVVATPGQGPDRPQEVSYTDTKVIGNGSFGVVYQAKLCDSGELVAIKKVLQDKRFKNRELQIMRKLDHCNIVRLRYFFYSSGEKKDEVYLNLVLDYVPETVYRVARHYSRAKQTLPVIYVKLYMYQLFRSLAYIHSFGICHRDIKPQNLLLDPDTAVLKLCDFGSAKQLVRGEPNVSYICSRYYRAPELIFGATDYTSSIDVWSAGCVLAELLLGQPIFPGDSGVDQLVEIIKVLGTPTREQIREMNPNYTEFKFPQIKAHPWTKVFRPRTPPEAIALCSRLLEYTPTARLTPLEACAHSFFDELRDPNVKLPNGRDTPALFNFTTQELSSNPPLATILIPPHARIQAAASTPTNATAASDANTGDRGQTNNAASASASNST
T2 sequence (P49841 whole entry): as the sequence (P49841 whole entry, one chain of several) above

## O=C(Nc1ccc([N+](=O)[O-])cc1Cl)c1cc(Cl)ccc1O [niclosamide]
[1]; nM concentration
  apoptosis: did not occur
[1]; μM concentration level
  death of colorectal cells: induced death
beta-catenin (β-catenin)
  expression of beta-catenin: reduced
[2]
  GSK3 of nuclei: increased
  amount of Snail: reduced
  amount of beta-catenin: reduced
Axin2-GSK3 complex
  GSK3 which bound to Axin2: reduced
[3]
  interaction between recombinant GSK3 and synthesized Axin peptide: inhibited in proportion to the administration concentration
[4]
  potential of movements of colorectal cancer cells: largely reduced
Snail expression by CagA
  Snail expression by CagA: inhibited
